Measurements published in ChEMBL document CHEMBL1201862, “PubChem BioAssay data set” (2004).
Active and inactive are the calls of the source.

How the values were obtained:
[1] = target: Heat shock protein HSP 90-alpha (Homo sapiens, UniProt P07900); format: functional, organism-based
[2] = tested on: Streptococcus sp. 'group A'; assay: Streptococcus pyogenes SK(-)GAS viability under kanamycin – luminescence, BacTiterGlo, confirmation, counter-screen for streptokinase expression inhibitor project, dose response (AID 1900); format: functional, organism-based
Streptococcus = assay: GAS UMAA2166 growth inhibition – luminescence, BacTiterGlo, counter-screen for streptokinase expression inhibitor project, dose response (AID 1915); format: functional, organism-based;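 further: potency for reduction of bacterial viability or growth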
[3] = viability loss in HeLa cells – cytotoxicity control for MgcRacGAP inhibitor project, dose response (AID 624300); format: functional
[4] = target: T1, Rac GTPase-activating protein 1 (Homo sapiens, UniProt Q9H0H5); assay: blockers of MgcRacGAP-driven Rac1 GTP hydrolysis – biochemical, ADP Hunter fluorescence, primary and confirmatory, confirmation (AID 624330); format: functional
T1 sequence (Q9H0H5 whole entry): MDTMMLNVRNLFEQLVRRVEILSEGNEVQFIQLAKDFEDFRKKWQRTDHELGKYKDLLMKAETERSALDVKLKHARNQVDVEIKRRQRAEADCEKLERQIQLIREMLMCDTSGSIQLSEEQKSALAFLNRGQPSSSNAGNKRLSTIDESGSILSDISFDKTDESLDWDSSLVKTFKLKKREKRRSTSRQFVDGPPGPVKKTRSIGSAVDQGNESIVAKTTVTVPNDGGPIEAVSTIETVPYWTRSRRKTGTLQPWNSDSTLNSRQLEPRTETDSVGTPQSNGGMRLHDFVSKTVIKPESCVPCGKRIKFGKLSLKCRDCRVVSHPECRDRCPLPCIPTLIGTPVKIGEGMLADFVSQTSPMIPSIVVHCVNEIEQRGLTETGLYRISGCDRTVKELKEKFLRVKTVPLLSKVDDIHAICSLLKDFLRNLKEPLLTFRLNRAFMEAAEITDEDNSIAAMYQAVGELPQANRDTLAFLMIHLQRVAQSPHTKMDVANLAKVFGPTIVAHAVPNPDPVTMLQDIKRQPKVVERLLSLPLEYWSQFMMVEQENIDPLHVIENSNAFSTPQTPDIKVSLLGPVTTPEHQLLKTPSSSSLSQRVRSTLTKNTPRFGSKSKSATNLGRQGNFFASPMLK

[5] = target: T2, DNA repair and recombination protein RAD54-like (Homo sapiens, UniProt Q92698); assay: RAD54 Holliday junction migration blockers – biochemical, fluorescence, cherry-picked samples, dose series, confirmation (AID 651657); format: functional
T2 sequence (Q92698 whole entry): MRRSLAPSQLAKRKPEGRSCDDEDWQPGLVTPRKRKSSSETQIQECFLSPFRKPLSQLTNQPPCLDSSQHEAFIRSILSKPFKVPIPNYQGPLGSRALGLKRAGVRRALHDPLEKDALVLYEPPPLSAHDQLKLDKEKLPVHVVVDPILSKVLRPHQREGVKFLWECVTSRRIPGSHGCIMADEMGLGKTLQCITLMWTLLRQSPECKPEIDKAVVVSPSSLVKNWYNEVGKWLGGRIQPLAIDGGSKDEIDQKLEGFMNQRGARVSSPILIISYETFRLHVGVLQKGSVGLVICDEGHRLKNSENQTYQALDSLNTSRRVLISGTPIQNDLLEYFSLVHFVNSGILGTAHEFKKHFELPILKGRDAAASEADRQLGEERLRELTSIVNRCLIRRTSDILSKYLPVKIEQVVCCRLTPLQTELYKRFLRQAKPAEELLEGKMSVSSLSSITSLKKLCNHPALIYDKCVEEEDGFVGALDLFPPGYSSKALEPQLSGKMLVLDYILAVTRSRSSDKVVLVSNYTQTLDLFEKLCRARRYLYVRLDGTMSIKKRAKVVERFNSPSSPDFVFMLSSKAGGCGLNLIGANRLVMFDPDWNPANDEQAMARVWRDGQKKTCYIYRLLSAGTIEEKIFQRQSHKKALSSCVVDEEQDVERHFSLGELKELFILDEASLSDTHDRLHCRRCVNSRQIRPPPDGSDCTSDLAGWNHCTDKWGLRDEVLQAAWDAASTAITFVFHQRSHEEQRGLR

[6] = blockade of melanocortin 4 receptor signaling – cell-based, plate reader, cherry pick, counter-screen for LGR2 antagonist project, dose response (AID 743444); format: functional;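 further: transfected HEK 293 cells stimulated with alpha-MSH peptide; potency of inhibitors of the alpha-MSH evoked signal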
[7] = viability loss in HEK293 cells – cell-based, plate reader, cherry-picked samples, cytotoxicity control, dose response (AID 743446); format: functional
[8] = toxicity toward HepG2 liver cells – cell-based, plate reader, cherry-pick, antagonist series, cytotoxicity control, dose response (AID 743416); format: functional
[9] = blockers of bursicon-stimulated LGR2 cAMP reporter – cell-based, HEK293, CRE-luciferase reporter, cherry pick, set 2, dose response (AID 743343); format: functional;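 further: transfected cells were stimulated with diluted bursicon conditioned medium after compound addition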
HEK293 = assay: EBV LMP1 TES2 canonical NF-kB signalling blockers – cell-based, HEK293, luciferase, cherry-pick, dose response (AID 588343); format: functional; conditions: Homo sapiens
[10] = target: T3, Endoribonuclease toxin MazF (Escherichia coli K-12, UniProt P0AE70); assay: activation of MazEF endoribonuclease cleavage – biochemical, fluorescence, single-stranded RNA substrate, uHTS hits, dose response (AID 588481); format: functional
T3 sequence (P0AE70 whole entry): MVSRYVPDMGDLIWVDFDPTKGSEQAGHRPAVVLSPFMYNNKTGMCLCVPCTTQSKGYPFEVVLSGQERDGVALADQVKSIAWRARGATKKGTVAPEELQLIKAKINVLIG

[11] = target: T3, Endoribonuclease toxin MazF; assay: substrate-only fluorescence increase artefacts – biochemical, single-stranded RNase substrate, counter-screen for MazEF activator project, dose response (AID 588502); format: functional
[12] = HIV-1 Vif–A3G interaction blockers – biochemical, TR-FRET, GST-Vif 1-94, biotin-A3G peptide, dose response retest, primary screen (AID 1117319); format: functional;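 further: TR-FRET signal of purified GST-Vif binding a biotinylated A3G peptide; inhibitors lower the FRET signal by blocking Vif and A3G binding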
[13] = target: T4, RNA-binding protein pos-1 (Caenorhabditis elegans, UniProt G5EF15); assay: disruptors of C. elegans POS-1 RNA interaction – biochemical, fluorescence polarization, dose response (AID 1964);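 further: purified POS-1 fused to maltose binding protein made in E. coli; potency of compounds blocking POS-1 binding to fluorescent RNA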
T4 sequence (G5EF15 whole entry): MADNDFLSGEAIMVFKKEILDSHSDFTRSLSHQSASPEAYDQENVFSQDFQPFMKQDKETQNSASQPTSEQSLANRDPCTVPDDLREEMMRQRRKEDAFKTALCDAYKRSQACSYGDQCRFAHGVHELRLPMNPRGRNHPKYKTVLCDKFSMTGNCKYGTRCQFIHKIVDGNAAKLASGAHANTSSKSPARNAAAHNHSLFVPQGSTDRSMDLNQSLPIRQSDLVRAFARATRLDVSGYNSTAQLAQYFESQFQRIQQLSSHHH

[14] = target: T5, Zinc finger protein mex-5 (Caenorhabditis elegans, UniProt Q9XUB2); assay: potency of MEX-5 RNA-binding blockers – biochemical, C. elegans, fluorescence polarization, dose response (AID 1960)
T5 sequence (Q9XUB2 whole entry): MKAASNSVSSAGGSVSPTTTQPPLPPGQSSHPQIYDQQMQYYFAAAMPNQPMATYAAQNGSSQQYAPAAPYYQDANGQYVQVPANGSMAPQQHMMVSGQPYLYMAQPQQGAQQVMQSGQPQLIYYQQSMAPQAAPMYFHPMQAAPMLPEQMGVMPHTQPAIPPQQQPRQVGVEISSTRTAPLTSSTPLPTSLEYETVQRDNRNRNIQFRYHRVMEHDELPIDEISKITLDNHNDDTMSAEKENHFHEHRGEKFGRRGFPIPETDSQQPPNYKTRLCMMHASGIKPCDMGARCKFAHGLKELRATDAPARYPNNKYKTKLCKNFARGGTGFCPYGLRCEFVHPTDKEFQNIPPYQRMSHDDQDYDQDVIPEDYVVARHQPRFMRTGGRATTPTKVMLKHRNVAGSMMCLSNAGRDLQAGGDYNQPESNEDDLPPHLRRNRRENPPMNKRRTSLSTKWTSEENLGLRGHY

Genome polyprotein = Genome polyprotein (dengue virus type 2, UniProt P29990); assay: flavivirus cap methylation enzyme inhibition – biochemical, confirmation dose response, primary screen (AID 588689); format: functional
Sequence of Genome polyprotein (P29990 2492-3391 limits assumed): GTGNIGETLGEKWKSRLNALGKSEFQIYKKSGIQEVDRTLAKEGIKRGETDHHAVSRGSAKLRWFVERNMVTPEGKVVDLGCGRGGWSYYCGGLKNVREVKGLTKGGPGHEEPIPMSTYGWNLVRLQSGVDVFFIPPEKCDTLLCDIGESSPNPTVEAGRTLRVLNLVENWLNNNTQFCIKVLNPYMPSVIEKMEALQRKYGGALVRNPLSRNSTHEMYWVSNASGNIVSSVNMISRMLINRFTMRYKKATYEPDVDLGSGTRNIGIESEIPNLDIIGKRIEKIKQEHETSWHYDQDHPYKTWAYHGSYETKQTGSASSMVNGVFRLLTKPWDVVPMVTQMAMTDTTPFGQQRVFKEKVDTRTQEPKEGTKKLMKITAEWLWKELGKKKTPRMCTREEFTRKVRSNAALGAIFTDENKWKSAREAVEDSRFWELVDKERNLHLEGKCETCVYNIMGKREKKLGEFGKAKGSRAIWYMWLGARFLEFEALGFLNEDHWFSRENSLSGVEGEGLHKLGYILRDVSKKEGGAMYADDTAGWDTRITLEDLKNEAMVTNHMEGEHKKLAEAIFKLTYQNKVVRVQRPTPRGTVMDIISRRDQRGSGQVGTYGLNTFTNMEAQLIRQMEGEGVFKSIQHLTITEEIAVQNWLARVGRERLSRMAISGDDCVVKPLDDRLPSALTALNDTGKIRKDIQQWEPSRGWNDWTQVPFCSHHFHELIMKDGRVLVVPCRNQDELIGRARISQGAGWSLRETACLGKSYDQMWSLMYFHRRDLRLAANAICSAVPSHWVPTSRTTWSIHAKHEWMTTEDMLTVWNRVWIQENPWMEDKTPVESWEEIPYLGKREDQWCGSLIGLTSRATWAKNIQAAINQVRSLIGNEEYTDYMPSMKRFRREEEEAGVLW

Structure (SMILES): O=C(Nc1nc(-c2ccccn2)cs1)c1ncc(Cl)c(Cl)c1Cl
- AC50 [1]: 3.55 µM (active)
- EC50 [2]: 390 nM (active)
- EC50 (Streptococcus): 1.64 µM (active)

Structure (SMILES): Clc1ccc(OCCOCCNCc2ccccc2)cc1Cl
- CC50 [3]: 91.9 µM (active)
- IC50 [4]: 149 µM (active)

Structure (SMILES): OC1CCCN(Cc2c3ccccc3cc3ccccc23)C1 (stereo unspecified)
- AC50 [5]: 4.09 µM (active)

Structure (SMILES): O=C(Nc1ccccc1)c1cn2ccccc2n1
- AC50 [6]: 6.74 µM (active)
- AC50 [7]: 48.4 µM (active)
- AC50 [8]: > 52 µM (inactive)
- AC50 [9]: 6.06 µM (active)
- AC50 (HEK293): 3.47 µM (active)

Structure (SMILES): COc1cc2nc3c(O)n(CCN4CCCCC4)cnc-3c2cc1OC
- AC50 [5]: 36.3 µM (active)

Structure (SMILES): NC(=O)c1ccc(-n2nnnc2SCC(=O)Nc2ccccc2F)cc1
- EC50 [10]: > 99 µM (inactive)
- EC50 [11]: > 99 µM (inactive)

Structure (SMILES): CC(C)C(NC(N)=O)C(=O)NC1CCCCC1 (stereo unspecified)
- IC50 [12]: > 100 µM (active)

Structure (SMILES): Cn1c(C(=O)NCCCN2CCOCC2)cc2c(=O)n(C)c3ccccc3c21
- AC50 [5]: 26.1 µM (active)
- EC50 [13]: > 300 µM (not active)
- EC50 [14]: > 300 µM (not active)

Structure (SMILES): O=C1C(=Cc2cccn2-c2ccc(O)cc2)C(=O)c2ccccc21
- EC50 [10]: > 99 µM (inactive)
- IC50 (Genome polyprotein): 10.1 µM (active)
- EC50 [11]: 50.3 µM (inactive)
